Assay: Solubility of curcumin in water (amount dissolved, UV/Vis measurement)
Format: physicochemical
Settings: visual yellow colouring of supernatant
Protocol: Curcumin was first incorporated into eggshell flour. Two different methods were used for this purpose. […] Ethanol was evaporated without stirring (HP). […] Ethanol was evaporated with stirring (R). For comparison, curcumin was mixed with eggshell meal (physical mixture=PM) and added to water as a pure substance (bulk). From all samples, the amount of dissolved curcumin was measured. […] The dissolved amount of curcumin was determined at different time points by UV/Vis measurement. […] For method 2, the solubility was approximately 50 times higher.
The physical mixture contained similar amounts.

dissolution of curcumin in the water phase (discolouration of aqueous supernatant): no dissolution of curcumin occurred
Structure (SMILES): COc1cc(/C=C/C(=O)CC(=O)/C=C/c2ccc(O)c(OC)c2)ccc1O [pure substance, Curcumin]
